# Patent US20210323918A1, “COMPOSITIONS AND METHODS FOR SUPPRESSING AND/OR TREATING A GROWTH RELATED DISEASE AND/OR A CLINICAL CONDITION THEREOF” (CK Biotech Inc., priority 2018, published 2021)
# Where two headings read alike, the source gives them in different places.
# Target: T1, CXXC5-DVL interaction (Homo sapiens, UniProt O14640)
# T1 construct: 5 mg/ml purified DVL PDZ domain was incubated in each well
# T1 sequence (O14640 251-323 limits assumed): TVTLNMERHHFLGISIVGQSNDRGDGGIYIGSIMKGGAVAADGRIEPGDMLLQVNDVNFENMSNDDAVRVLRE
# Assay: In vitro CXXC5-DVL binding assay (FITC-tagged PTD-DBMP on DVL PDZ domain)
# Conditions: read-out: CXXC5-DVL interaction (%)
# Procedure: Screening for compounds that inhibit the CXXC5-DVL interaction. […] Briefly, 5 mg/ml purified DVL PDZ domain was incubated in each well of a 96-well Maxibinding Immunoplate (SPL) at 4° C. for 16 hours. After the addition of 10 μM FITC-tagged PTD-DBMP to each well, each compound in the chemical library or control (DMSO) was treated to the well at a final concentration of 30 μM. The fluorescence intensity was measured using a Fluorstar Optima microplate reader (BGM Lab Technologies, Ortenberg, Germany). The binding values were calculated as a percent ratio of the fluorescent intensity normalized to the DMSO-treated control.
# [1] = compound 30 μM, fluorescent intensity normalized to DMSO-treated control
remaining activity at 30 µM [1] [%],SMILES,remaining activity at 30 µM [%]
4.76,COC(=O)C1=C(C)N/C(=C/c2cc(C)n(-c3ccccc3F)c2C)C1=O [Compound 4],
0.72,COc1ccc(C2CC(=O)C3=C(C2)Nc2onc(C)c2C3c2ccc(O)c(O)c2)cc1OC (centres unmarked) [Compound 7],
7.43,O=c1c(O)c(-c2ccc(O)cc2O)oc2cc(O)cc(O)c12 [Compound 15],
4.01,Cc1cc(C)c2c(O)nc(SCC(=O)c3ccc(O)c(O)c3)nc2n1 [Compound 3],
7.62,COc1ccc(C)cc1/N=N/c1ccc(O)c2nc(/C=N/O)ccc12 [Compound 1],
1.73,O=c1cc(O)cc(/C=C/c2ccc(O)c(O)c2)o1 [Compound 11],
1.01,COc1ccc(C2CC(C(F)(F)F)n3ncc(C(=O)O)c3N2)cc1OC (centres unmarked) [Compound 2],

# Second part, the compound before the results:
SMILES,remaining activity at 30 µM [1] [%],remaining activity at 30 µM [%]
O=C(OCCN1CCOCC1)C1(c2ccccc2)CCCCC1 [Compound 18],5.7,
CN1CCc2cc(O)cc3c2[C@H]1Cc1ccc(O)c(O)c1-3 [Compound 9],2.5,
CN(C)c1ccc(O)c2c1C[C@H]1C[C@H]3[C@H](N(C)C)C(O)=C(C(N)=O)C(=O)[C@@]3(O)C(O)=C1C2=O [Compound 16],,4.37
"O=C1Nc2ccccc2/C1=C1/Nc2ccccc2/C1=N\O [Compound 12, indirubin-3′-oxime, reference compound]",7.65,
NC(Cc1cc(O)c(O)cc1O)C(=O)O (centres unmarked) [Compound 10],,1.39
Oc1cc(O)cc(/C=C/c2ccc(O)c(O)c2)c1 [Compound 17],7.61,
O=C(O)C1Sc2[nH]c(=O)sc2C2c3cc(Br)cc(Br)c3OC(=O)C12 (centres unmarked) [Compound 5],1.19,
O=c1c(O)c(-c2cc(O)c(O)c(O)c2)oc2cc(O)cc(O)c12 [Compound 13],7.66,
CCN(CC)S(=O)(=O)c1ccc(OC)c(Nc2cc(-c3ccccc3)nc(C)n2)c1 [Compound 6],7.63,
CC(N)(Cc1ccc(O)c(O)c1)C(=O)O (centres unmarked) [Compound 14],7.65,
